One block for each compound: values may come before it. Activity calls are given as the source filed them. The calls are words filed in the database; no cut-off is given here.
Experiments:
Quadruplex DNA [1] = assay: Binding affinity to synthetic 5'Dabcyl/3'-FAM-labeled EGFR 272 G4 quadruplex DNA folded DNA assessed as enthalpy change by isothermal titration calorimetry; assay type: nucleic-acid assay
DU-145 [2] = assay: Effect on human DU145 cell growth assessed as change in cell growth at 72 hrs 0.5 times IC50 treated for every week for 56 days by cell counter based trypan blue exclusion assay; assay type: functional
PC-3 [3] = assay: Effect on ephithelial-mesenchymal transition in human PC3 cell assessed as increase in vimentin at 48 hrs 0.5 times IC50 treated for every week for 56 days by Western immunoblotting analysis; assay type: functional, cell-based
PC-3 [4] = assay: Cytotoxicity against human PC3 cells assessed as decrease in cell viability after 72 hrs by MTS assay; assay type: functional, cell-based; settings: PC-3, 72 h
Homo sapiens [5] = organism: Homo sapiens; assay: Effect on telomere DNA in human PC3 cells assessed as telomere DNA length at 48 hrs 0.5 times IC50 treated for every week for 56 days by pulsed field electrophoresis/southern blot based densitometric analysis (reference value: 4.6 +/- 0.3 kb); assay type: cell-based
[6] = target: RAC-alpha serine/threonine-protein kinase (Homo sapiens) (UniProt P31749); assay: Effect on AKT phosphorylation at S473 in heterozygous PTEN-positive human DU145 cells as reduction in AKT phosphorylation at S473 residue at 48 hr IC50 incubated for 48 hrs by Western immunoblot assay
RAC-alpha serine/threonine-protein kinase (Homo sapiens), sequence (P31749 whole entry): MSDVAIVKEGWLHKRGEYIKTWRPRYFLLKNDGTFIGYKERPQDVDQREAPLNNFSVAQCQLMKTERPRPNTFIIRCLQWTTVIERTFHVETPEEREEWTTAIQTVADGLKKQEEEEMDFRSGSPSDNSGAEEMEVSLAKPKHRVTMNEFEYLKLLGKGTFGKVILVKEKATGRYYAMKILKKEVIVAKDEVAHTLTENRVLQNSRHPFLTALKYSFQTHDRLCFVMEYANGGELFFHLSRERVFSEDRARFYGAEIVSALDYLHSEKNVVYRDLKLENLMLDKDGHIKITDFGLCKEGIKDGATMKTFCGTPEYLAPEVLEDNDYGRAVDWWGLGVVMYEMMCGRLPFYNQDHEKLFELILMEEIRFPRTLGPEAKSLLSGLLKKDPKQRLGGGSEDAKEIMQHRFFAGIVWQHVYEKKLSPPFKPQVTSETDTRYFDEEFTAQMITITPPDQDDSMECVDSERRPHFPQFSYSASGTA

DU-145 [7] = assay: Induction of apoptosis in human DU145 cells assessed as increase in cleaved PARP1 level after 48 to 96 hrs by Western blot analysis; assay type: functional, cell-based
PC-3 [8] = assay: Effect on human PC3 cell growth assessed as reduction in cell growth at 72 hrs 0.5 times IC50 treated for every week for 56 days by cell counter based trypan blue exclusion assay; assay type: functional
DU-145 [9] = assay: Effect of EGFR protein expression in human DU145 cell at 48 hrs IC50 treated for every week for 56 days by Western immunoblotting analysis; assay type: functional, cell-based
PC-3 [10] = assay: Effect on telomeric C-circle DNA in human PC3 cell assessed as alternative telomere maintenance based increase in telomeric C-circle DNA level at 48 hrs 0.5 times IC50 treated for every week for 56 days [32P]-labeled (CCCTAA)3 probe incubated for 56 days followed by post incubation of 8 hrs in presence of Bacillus phage phi29 DNA polymerase and further heat inactivation at 65 degreeC for 20 mins by dot blot based CC assay; assay type: functional
DU-145 [11] = assay: Effect on AKT basal level in heterozygous PTEN-positive human DU145 cells assessed as reduction in AKT basal level at 48 hrs IC50 incubated for 48 hrs by Western immunoblot assay; assay type: ADME, cell-based; settings: du-145, 48 h
Quadruplex DNA [12] = assay: Stabilization of synthetic 5'Dabcyl/3'-FAM-labeled EGFR 272 G4 quadruplex DNA assessed as change in melting temperature by fluorescence melting assay; assay type: nucleic-acid assay
PC-3 [13] = assay: Cytotoxicity against human PC3 cells assessed as decrease in cell viability after 48 hrs by MTS assay; assay type: functional, cell-based; settings: PC-3, 48 h
PC-3 [14] = assay: Effect on ERK 1/2 basal level in human PC3 cells assessed as downregulation of ERK 1/2 basal level at 48 hrs IC50 incubated for 48 hrs by Western immunoblot assay; assay type: ADME, cell-based; settings: pc-3, 48 h
[15] = target: T1, Mitogen-activated protein kinase; ERK1/ERK2 (Homo sapiens) (UniProt P27361+P28482); assay: Effect on ERK 1/2 phosphorylation at T202/Y204 residues in human PC3 cells assessed as decrease in ERK1/2 phosphorylation at T202/Y204 at 48 hrs IC50 incubated for 96 hrs by Western immunoblot assay; assay type: cell-based
T1 sequence (P27361 whole entry, looked up): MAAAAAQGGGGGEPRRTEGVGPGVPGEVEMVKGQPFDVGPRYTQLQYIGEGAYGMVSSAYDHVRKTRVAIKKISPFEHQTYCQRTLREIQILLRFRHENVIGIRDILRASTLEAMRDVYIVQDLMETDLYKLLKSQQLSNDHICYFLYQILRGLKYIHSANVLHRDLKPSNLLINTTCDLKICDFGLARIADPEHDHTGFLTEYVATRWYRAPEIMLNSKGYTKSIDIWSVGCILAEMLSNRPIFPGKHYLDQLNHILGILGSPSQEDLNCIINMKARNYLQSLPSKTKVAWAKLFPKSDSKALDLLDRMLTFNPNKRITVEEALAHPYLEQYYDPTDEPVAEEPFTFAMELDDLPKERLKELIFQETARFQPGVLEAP
T1 sequence (P28482 whole entry, looked up): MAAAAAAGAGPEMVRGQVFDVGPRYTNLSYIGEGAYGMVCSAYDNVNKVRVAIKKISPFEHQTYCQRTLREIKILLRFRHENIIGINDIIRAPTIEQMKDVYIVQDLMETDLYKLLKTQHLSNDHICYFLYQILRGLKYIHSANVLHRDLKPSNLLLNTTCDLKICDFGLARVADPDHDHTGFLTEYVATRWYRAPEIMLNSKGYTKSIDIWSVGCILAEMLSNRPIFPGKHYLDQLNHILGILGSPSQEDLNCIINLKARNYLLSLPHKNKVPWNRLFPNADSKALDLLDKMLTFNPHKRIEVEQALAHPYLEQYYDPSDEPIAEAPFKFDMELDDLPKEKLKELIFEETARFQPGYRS

PC-3 [16] = assay: Down regulation of EGFR protein expression in human PC3 cells at 48 hrs IC50 incubated for 48 hrs by Western immunoblot assay relative to control; assay type: functional
PC-3 [17] = assay: Effect on ephithelial-mesenchymal transition in human PC3 cell assessed as decrease in E-cadherin expression at 48 hrs 0.5 times IC50 treated for every week for 56 days by Western immunoblotting analysis; assay type: functional, cell-based
DU-145 [18] = assay: Cytotoxicity against human DU145 cells assessed as decrease in cell viability after 48 hrs by MTS assay; assay type: functional, cell-based; settings: DU-145, 48 h
PC-3 [19] = assay: Effect on human PC3 cell growth assessed as no change in population doubling at 48 hr IC50 incubated for 48 hrs by cell counter based trypan blue exclusion assay; assay type: functional
DU-145 [20] = assay: Effect on human DU145 cell growth assessed as population doubling at 48 hr IC50 incubated for 96 hrs by cell counter based trypan blue exclusion assay (reference value: 2.89); assay type: functional
DU-145 [21] = assay: Cytotoxicity against human DU145 cells assessed as decrease in cell viability after 24 hrs by MTS assay; assay type: functional, cell-based; settings: DU-145, 24 h
PC-3 [22] = assay: Effect on human PC3 cell growth assessed as population doubling at 48 hr IC50 incubated for 96 hrs by cell counter based trypan blue exclusion assay (reference value: 2.6); assay type: functional
PC-3 [23] = assay: Cytotoxicity against human PC3 cells assessed as decrease in cell viability after 24 hrs by MTS assay; assay type: functional, cell-based; settings: PC-3, 24 h
DU-145 [24] = assay: Down regulation of EGFR protein expression in human DU145 cells at 48 hrs IC50 incubated for 96 hrs by Western immunoblot assay relative to control; assay type: functional
PC-3 [25] = assay: Effect of EGFR protein expression in human PC3 cell assessed as reduction in EGFR level at 48 hrs IC50 treated for every week for 56 days by Western immunoblotting analysis; assay type: functional
Quadruplex DNA [26] = assay: Stabilization of synthetic 5'Dabcyl/3'-FAM-labeled EGFR 272 G4 quadruplex DNA assessed as change in melting temperature at 1 uM by Fluorescence melting assay; assay type: nucleic-acid assay
DU-145 [27] = assay: Effect on ERK 1 basal level in human DU145 cells assessed as reduction in ERK 1 basal level at 48 hrs IC50 incubated for 48 hrs by Western immunoblot assay; assay type: ADME, cell-based; settings: du-145, 48 h
Quadruplex DNA [28] = assay: Binding affinity to synthetic 5'Dabcyl/3'-FAM-labeled telomeric 22 G4 quadruplex DNA folded DNA assessed as entropy change by isothermal titration calorimetry; assay type: nucleic-acid assay
DU-145 [29] = assay: Down regulation of EGFR protein expression in human DU145 cells after 24 hrs by Western immunoblot assay; assay type: functional, cell-based
PC-3 [30] = assay: Effect on ERK 1/2 basel level in human PC3 cells assessed as downregulation of ERK 1/2 basal level at 48 hrs IC50 incubated for 96 hrs by Western immunoblot assay; assay type: ADME, cell-based; settings: pc-3, 96 h
DU-145 [31] = assay: Cytotoxicity against human DU145 cells assessed as decrease in cell viability after 72 hrs by MTS assay; assay type: functional, cell-based; settings: DU-145, 72 h
PC-3 [32] = assay: Effect on AKT basal level in homozygous PTEN-deficient human PC3 cells assessed as reduction in AKT basal level at 48 hr IC50 incubated for 48 to 96 hrs by Western immunoblot assay; assay type: ADME, cell-based
[33] = target: RAC-alpha serine/threonine-protein kinase (Homo sapiens) (UniProt P31749); assay: Effect on AKT phosphorylation at S473 homozygous PTEN-deficient human PC3 cells as reduction in AKT phosphorylation at S473 residue at 48 hr IC50 incubated for 48 to 96 hrs by Western immunoblot assay
PC-3 [34] = assay: Induction of apoptosis in human PC3 cells assessed as increase in cleaved PARP1 level after 48 to 96 hrs by Western blot analysis; assay type: functional, cell-based
PC-3 [35] = assay: Down regulation of EGFR protein expression in human PC3 cells after 24 hrs by Western immunoblot assay; assay type: functional, cell-based
Quadruplex DNA [36] = assay: Binding affinity to synthetic 5'Dabcyl/3'-FAM-labeled EGFR 272 G4 quadruplex DNA folded DNA assessed as entropy change by isothermal titration calorimetry; assay type: nucleic-acid assay
[37] = target: T1, Mitogen-activated protein kinase; ERK1/ERK2 (Homo sapiens); assay: Effect on ERK 1/2 phosphorylation at T202/Y204 residues in human PC3 cells assessed as decrease in ERK1/2 phosphorylation at T202/Y204 at 48 hrs IC50 incubated for 48 hrs by Western immunoblot assay; assay type: cell-based
Homo sapiens [38] = organism: Homo sapiens; assay: Effect on telomere DNA in human PC3 cell assessed as increase in telomere DNA length at 48 hrs 0.5 times IC50 treated for every week for 56 days by pulsed field electrophoresis/southern blot based densitometric analysis
[39] = target: T1, Mitogen-activated protein kinase; ERK1/ERK2 (Homo sapiens); assay: Effect on ERK 1/2 phosphorylation at T202/Y204 residues in human DU145 cells assessed as increase in ERK1/2 phosphorylation at T202/Y204 at 48 hrs IC50 incubated for 48 to 96 hrs by Western immunoblot assay; assay type: cell-based
Quadruplex DNA [40] = assay: Binding affinity to synthetic 5'Dabcyl/3'-FAM-labeled telomeric 22 G4 quadruplex DNA folded DNA assessed as enthalpy change by isothermal titration calorimetry; assay type: nucleic-acid assay
Homo sapiens [41] = organism: Homo sapiens; assay: Effect on telomere DNA in human DU145 cells assessed as telomere DNA length at 48 hrs 0.5 times IC50 treated for every week for 56 days by pulsed field electrophoresis/southern blot based densitometric analysis (reference value: 3.9 +/- 0.5 kb); assay type: cell-based
Quadruplex DNA [42] = assay: Stabilization of synthetic 5'Dabcyl/3'-FAM-labeled telomeric 22 G4 quadruplex DNA assessed as change in melting temperature by fluorescence melting assay; assay type: nucleic-acid assay
DU-145 [43] = assay: Effect on ERK 2 basal level in human DU145 cells assessed as reduction in ERK 2 basal level at 48 hrs IC50 incubated for 48 hrs by Western immunoblot assay; assay type: ADME, cell-based; settings: du-145, 48 h
PC-3 [44] = assay: Down regulation of EGFR protein expression in human PC3 cells at 48 hrs IC50 incubated for 96 hrs by Western immunoblot assay relative to control; assay type: functional

deltaH (Quadruplex DNA [1]): -21.5 kcal/mol | Activity [6]: inactive | Activity (Quadruplex DNA [12]): Active | Activity [15]: inactive | Activity (Quadruplex DNA [26]): Active | deltaS (Quadruplex DNA [28]): -10.1 cal/mol.K | Activity [33]: Active | deltaS (Quadruplex DNA [36]): -46.4 cal/mol.K | Activity [37]: Active | Activity (Homo sapiens [38]): Active | Activity [39]: Active | deltaH (Quadruplex DNA [40]): -10.7 kcal/mol | Activity (Quadruplex DNA [42]): Active
SMILES: COc1ccc(CNCCCN2C(=O)c3ccc4c5c(ccc(c35)C2=O)C(=O)N(CCCNCc2ccc(OC)c(OC)c2OC)C4=O)c(OC)c1OC
Activity (DU-145 [2]): inactive | Activity (PC-3 [3]): Active | IC50 (PC-3 [4]): 630 nM | Activity (Homo sapiens [5]): 4.5 kilobase | Activity (DU-145 [7]): Active | Activity (PC-3 [8]): Active | Activity (DU-145 [9]): inactive | Activity (PC-3 [10]): Active | Activity (DU-145 [11]): Toxic | IC50 (PC-3 [13]): 970 nM | Activity (PC-3 [14]): Toxic | Activity (PC-3 [16]): 70 - 80% | Activity (PC-3 [17]): Active | IC50 (DU-145 [18]): 2260 nM | Activity (PC-3 [19]): Active | Activity (DU-145 [20]): 2 | IC50 (DU-145 [21]): 3460 nM | Activity (PC-3 [22]): 0.51 | IC50 (PC-3 [23]): 1360 nM | Activity (DU-145 [24]): 20% | inhibition (INH) (PC-3 [25]): 100% | Activity (DU-145 [27]): Toxic | Activity (DU-145 [29]): Dose-dependent effect | Activity (PC-3 [30]): Toxic | IC50 (DU-145 [31]): 1720 nM | Activity (PC-3 [32]): Toxic | Activity (PC-3 [34]): inactive | Activity (PC-3 [35]): Dose-dependent effect | Activity (Homo sapiens [41]): 3.8 kilobase

deltaH (Quadruplex DNA [1]): -1.1 kcal/mol | Activity [6]: inactive | Activity (Quadruplex DNA [12]): Active | Activity [15]: inactive | Activity (Quadruplex DNA [26]): Active | deltaS (Quadruplex DNA [28]): -1.9 cal/mol.K | Activity [33]: Active | deltaS (Quadruplex DNA [36]): 18.9 cal/mol.K | Activity [37]: Active | Activity (Homo sapiens [38]): Active | Activity [39]: Active | deltaH (Quadruplex DNA [40]): -8 kcal/mol | Activity (Quadruplex DNA [42]): Active
SMILES: COc1ccccc1CNCCCN1C(=O)c2ccc3c4c(ccc(c24)C1=O)C(=O)N(CCCNCCCCN)C3=O
Activity (DU-145 [2]): inactive | Activity (PC-3 [3]): Active | IC50 (PC-3 [4]): 1460 nM | Activity (Homo sapiens [5]): 4.4 kilobase | Activity (DU-145 [7]): Active | Activity (PC-3 [8]): Active | Activity (DU-145 [9]): inactive | Activity (PC-3 [10]): Active | Activity (DU-145 [11]): Toxic | IC50 (PC-3 [13]): 2440 nM | Activity (PC-3 [14]): Toxic | Activity (PC-3 [16]): 70 - 80% | Activity (DU-145 [43]): Toxic | Activity (PC-3 [17]): Active | IC50 (DU-145 [18]): 2730 nM | Activity (PC-3 [19]): Active | Activity (DU-145 [20]): 1.85 | IC50 (DU-145 [21]): 4760 nM | Activity (PC-3 [22]): 0.97 | IC50 (PC-3 [23]): 2800 nM | Activity (DU-145 [24]): 20% | inhibition (INH) (PC-3 [25]): 100% | Activity (PC-3 [44]): 50% | Activity (DU-145 [27]): Toxic | Activity (DU-145 [29]): Dose-dependent effect | Activity (PC-3 [30]): Toxic | IC50 (DU-145 [31]): 2050 nM | Activity (PC-3 [32]): Toxic | Activity (PC-3 [34]): inactive | Activity (PC-3 [35]): Dose-dependent effect | Activity (Homo sapiens [41]): 3.8 kilobase
